Reference: ChEMBL document CHEMBL3885861, “Open TG-GATES”

Species: Rattus norvegicus
Experiment: Open TG-GATES - Regimen: Single
Assay type: toxicity, organism-based, Sprague-Dawley
Set-up: regimen Single, gender Male, age 6 weeks
Conditions: in vivo, po, 1000 mg/kg, route gavage, dose level High; for APTT / Bas / Eos / Fbg / Hb / Lym / MCH / MCHC / MCV / Mono / Neu / PT / Plat / RBC / Ret / WBC / Ht: tissue Blood; for KIDNEY_L / KIDNEY_R / KIDNEY_TOTAL: tissue Kidney; for LIVER: tissue Liver; for ALP / ALT / CRE / DBIL / GLC / IP / K / LDH / Na / PL / RALB / TBIL / TC / TG / TP / gamma-GTP / AST / BUN / Ca: tissue Plasma

## O=C(O)c1cn(C2CC2)c2cc(N3CCNCC3)c(F)cc2c1=O [CIPROFLOXACIN]
3 h
  TERMINAL_BW: 182 g
  APTT: 17 s
  Bas: 0%
  Eos: 0.4%
  Fbg: 215.6 mg/dL
  Hb: 12.9 g/dL
  Lym: 80.4%
  MCH: 21.7 pg
  MCHC: 33.1%
  MCV: 65.5 fL
  Mono: 6.6%
  Neu: 12.6%
  PT: 12.6 s
  Plat: 101.8 x10_4/uL
  RBC: 592.8 x10_4/ul
  Ret: 11.2%
  WBC: 101.3 x10_2/uL
  KIDNEY_L: 0.8 g
  KIDNEY_R: 0.8 g
  KIDNEY_TOTAL: 1.7 g
  LIVER: 8.6 g
  ALP: 791 IU/L
  ALT: 36.8 IU/L
  CRE: 0.5 mg/dL
  DBIL: 0.022 mg/dL
  GLC: 191.2 mg/dL
  IP: 10.3 mg/dL
  K: 4.7 meq/L
  LDH: 132.2 IU/L
  Na: 139 meq/L
  PL: 141 mg/dL
  RALB: 3.8 g/dL
  TBIL: 0.3 mg/dL
  TC: 81.2 mg/dL
  TG: 47 mg/dL
  TP: 5.6 g/dL
  gamma-GTP: 1.4 IU/L
6 h
  TERMINAL_BW: 179.7 g
  Bas: 0%
  Eos: 0.8%
  Fbg: 210.4 mg/dL
  Hb: 12.9 g/dL
  Ht: 39.1%
  Lym: 78.2%
  MCHC: 32.9%
  MCV: 67.5 fL
  Mono: 7.6%
  Neu: 13.8%
  PT: 12.5 s
  Plat: 100.8 x10_4/uL
  RBC: 579.8 x10_4/ul
  Ret: 10%
  WBC: 97.6 x10_2/uL
  KIDNEY_L: 0.8 g
  KIDNEY_R: 0.8 g
  KIDNEY_TOTAL: 1.7 g
  LIVER: 7.9 g
  ALP: 904.2 IU/L
  AST: 69.4 IU/L
  BUN: 10 mg/dL
  CRE: 0.5 mg/dL
  Ca: 11.4 mg/dL
  DBIL: 0.052 mg/dL
  GLC: 185.8 mg/dL
  IP: 10.8 mg/dL
  K: 5.3 meq/L
  LDH: 140.4 IU/L
  Na: 138 meq/L
  PL: 137.2 mg/dL
  RALB: 3.7 g/dL
  TBIL: 0.3 mg/dL
  TC: 79.8 mg/dL
  TP: 5.5 g/dL
  gamma-GTP: 1 IU/L
9 h
  TERMINAL_BW: 176.2 g
  APTT: 16.9 s
  Bas: 0%
  Eos: 0.8%
  Fbg: 223 mg/dL
  Hb: 13.2 g/dL
  Ht: 39.9%
  Lym: 83.6%
  MCH: 22 pg
  MCHC: 33%
  MCV: 66.5 fL
  Mono: 5.8%
  Neu: 10%
  PT: 11.4 s
  Plat: 104.6 x10_4/uL
  RBC: 601 x10_4/ul
  WBC: 94.6 x10_2/uL
  KIDNEY_L: 0.8 g
  KIDNEY_R: 0.9 g
  KIDNEY_TOTAL: 1.7 g
  LIVER: 7.3 g
  ALP: 763.8 IU/L
  AST: 71.4 IU/L
  BUN: 11 mg/dL
  CRE: 0.5 mg/dL
  Ca: 10.8 mg/dL
  DBIL: 0.08 mg/dL
  GLC: 192.4 mg/dL
  IP: 11 mg/dL
  K: 5.2 meq/L
  LDH: 168.2 IU/L
  Na: 139 meq/L
  PL: 131.4 mg/dL
  RALB: 3.8 g/dL
  TBIL: 0.3 mg/dL
  TC: 78 mg/dL
  TG: 22.2 mg/dL
  TP: 5.6 g/dL
  gamma-GTP: 1.4 IU/L
24 h
  TERMINAL_BW: 193.6 g
  APTT: 15.4 s
  Bas: 0%
  Eos: 0.8%
  Fbg: 219.4 mg/dL
  Hb: 13.5 g/dL
  Ht: 40.1%
  Lym: 80%
  MCHC: 33.6%
  Mono: 6.4%
  Neu: 12.6%
  PT: 12.4 s
  Plat: 106.5 x10_4/uL
  RBC: 600.2 x10_4/ul
  Ret: 9.1%
  WBC: 110.9 x10_2/uL
  KIDNEY_L: 0.8 g
  KIDNEY_R: 0.9 g
  KIDNEY_TOTAL: 1.7 g
  LIVER: 8.7 g
  ALP: 1158.6 IU/L
  ALT: 49 IU/L
  BUN: 19.2 mg/dL
  CRE: 0.5 mg/dL
  Ca: 11.3 mg/dL
  DBIL: 0.028 mg/dL
  GLC: 183.8 mg/dL
  IP: 9.9 mg/dL
  K: 4.6 meq/L
  LDH: 177.2 IU/L
  Na: 140 meq/L
  PL: 146.4 mg/dL
  RALB: 4 g/dL
  TBIL: 0.2 mg/dL
  TC: 84 mg/dL
  TG: 51.2 mg/dL
  TP: 6 g/dL
  gamma-GTP: 1.2 IU/L
